Data taken from patent US20220280644A1, “"TRPswitch" - A STEP FUNCTION CHEMO-OPTOGENETIC LIGAND” (UNIVERSITY OF UTAH RESEARCH FOUNDATION, priority 2019, published 2022).

Assays:
zebrafish Trpa1b = experiment: Whole-cell patch-clamp of HEK293T cells expressing zebrafish Trpa1b; type: cell-based
Experimental: Immortalized HEK293T cells or human colonic fibroblast cells (CCD-18Co; ATCC) were used. HEK293T cells were plated on […] cover slips and transiently transfected with 10 μg of Trpa1b plasmid (pCMV-zTrpa1b-FLAG) (SEQ ID NO:3) and 5 μg of mNeonGreen cDNA (Allele Biotechnology), then grown in a 6 cm plate for 24-48 h. CCD-18Co were cultured in Eagle's minimal essential medium with 10% FBS, 1× penicillin and streptomycin. CCD-18Co cells were plated on 12 mm cover slips and transiently transfected with 5 μg of zTrpa1b plasmid (pCMV-zTrpa1b-FLAG) together with 5 μg of mNeonGreen cDNA (Allele Biotechnology), then grown in a […] plate for 48-72 h. After this time, the cover slips were transferred to a recording chamber containing an extracellular solution composed of 145 mM sodium gluconate, 4 mM KCl, 3 mM MgCl2, 10 mM D-glucose, 10 mM HEPES; pH 7.4 adjusted with NaOH. The internal solution contained 122 mM cesium methane sulfonate, 1.8 mM MgCl2, 9 mM EGTA, 14 mM creatine phosphate (sodium salt), 4 mM Mg-ATP, 0.3 mM Na-GTP, 10 mM HEPES, pH 7.2 adjusted with CsOH. Borosilicate glass pipettes with a resistance of 3-5 MO were used. Whole cell currents were measured on an Axopatch 200B amplifier (Molecular De-vices) under the control of pClamp software. Signals were digitized through a Digidata1550B interface (Molecular Devices). Currents were filtered at 5 kHz (lowpass, Bessel) and sampled at 10 kHz prior to analysis with Clampfit software (Molecular Devices). All the plots and statistical tests were performed on Excel (Microsoft corp.). Basal Trpa1b whole cell currents were measured with a ramp protocol (˜100 to +100 mV, at a holding potential of 0 mV). Photoactive compounds were perfused into the recording chamber and a fluorescent light generated by mercury vapor short arc (U-HGLGPS, OLYMPUS) filtered through an ET-ECFP 434/17 nm filter and through a ET-mCherry 560 nm filter (Chroma Technology) was switched “on” and “off” for 10 s. All experiments were performed at room temperature. The p values were calculated using a two-tailed, paired Student's t-test.

endogenous human TRPA1 = target: T1, endogenous human TRPA1 (Homo sapiens, UniProt O75762); experiment: Whole cell current in untransfected CCD-18Co cells; type: cell-based; conditions: untransfected CCD-18Co
T1 construct: human colonic fibroblast cells, CCD-18Co, which express human TRPA1 endogenously; endogenous in cells; host or cells: CCD-18Co (ATCC), untransfected
Experimental: Immortalized HEK293T cells or human colonic fibroblast cells (CCD-18Co; ATCC) were used. HEK293T cells were plated on […] cover slips and transiently transfected with 10 μg of Trpa1b plasmid (pCMV-zTrpa1b-FLAG) (SEQ ID NO:3) and 5 μg of mNeonGreen cDNA (Allele Biotechnology), then grown in a 6 cm plate for 24-48 h. CCD-18Co were cultured in Eagle's minimal essential medium with 10% FBS, 1× penicillin and streptomycin. CCD-18Co cells were plated on 12 mm cover slips and transiently transfected with 5 μg of zTrpa1b plasmid (pCMV-zTrpa1b-FLAG) together with 5 μg of mNeonGreen cDNA (Allele Biotechnology), then grown in a […] plate for 48-72 h. After this time, the cover slips were transferred to a recording chamber containing an extracellular solution composed of 145 mM sodium gluconate, 4 mM KCl, 3 mM MgCl2, 10 mM D-glucose, 10 mM HEPES; pH 7.4 adjusted with NaOH. The internal solution contained 122 mM cesium methane sulfonate, 1.8 mM MgCl2, 9 mM EGTA, 14 mM creatine phosphate (sodium salt), 4 mM Mg-ATP, 0.3 mM Na-GTP, 10 mM HEPES, pH 7.2 adjusted with CsOH. […] Whole cell currents were measured on an Axopatch 200B amplifier (Molecular De-vices) under the control of pClamp software. […] Basal Trpa1b whole cell currents were measured with a ramp protocol (˜100 to +100 mV, at a holding potential of 0 mV). […] The p values were calculated using a two-tailed, paired Student's t-test.

[1] = system: wild-type zebrafish larvae; experiment: Behavioral assay: light-induced motion response of wild-type larvae; type: in vivo, Zebrafish (Danio rerio); conditions: for light-induced motion response (in vivo activity): 3 dpf wild-type larvae, 1 s flashes WL1-WL4
Experimental: A total of 1,000 compounds were selected from the ChemBridge Corp. catalog. Compounds were dissolved in DMSO at a stock concentration of 1 μg/μL (˜1.5 mM). The library was screened at a 1:100 dilution in E3 solution for a final concentration of ˜15 μM. Negative controls were treated with an equal volume of DMSO. Groups of 3 larvae at 3 days post fertilization (dpf) were distributed into the wells of 96-well clear bottom black microplates (07-200-567; Fisher Scientific) in 150 μL E3 before the addition of small molecules. Stock solutions of compounds were added directly to zebrafish in the wells of a 96 well plate (Corning 3631), mixed, and allowed to incubate for 1 h in the dark at 28.5° C. prior to behavioral evaluation in the behavioral assay. Ordering information: 1 (5533696; ChemBridge); 3 (5538408; ChemBridge).
Larvae in each of the wells were exposed to four 1 second flashes of light stimulus in the following order: 450-500 nm (WL1), 415-455 nm (WL2), 352-402 nm (WL3), white light (WL4), with a 5 second inter-stimulus interval. Digital video recording was performed for 5 seconds before the first light stimuli and continued throughout the stimulation sequence. Band pass filters (Semrock FF02-475/50, FF02-435/40, FF01-377/50) were used to restrict the excitation light to the indicated wavelengths. […] 290 frames of digital video were recorded per well at 10 FPS using an EMCCD camera (C9100; Hamamatsu) mounted on an inverted compound microscope (AxioObserver A1; Zeiss) with a NA 0.03 1.25× objective and a barrier with a 0.7 mm diameter opening to restrict light scattering to the sample. MetaMorph software (Molecular Devices) was used to control the execution of TTL signals and camera capture using the built-in stream acquisition with trigger function. Each video was saved for review. Light stimuli were generated with an ozone free 300-Watt xenon bulb housed in a Lambda LS illuminator (Sutter Instruments). A dichroic mirror (T510LPXRXT; Chroma) was used for appropriate excitation of samples and bright field acquisition. Schott longpass absorption glass (RG610; Chroma) was added in the transmitted light path to reduce unwanted excitation to the well and to provide sufficient light for video recording. All behavioral experiments were conducted at room temperature. […]
To analyze digital video recordings, custom MetaMorph software scripts were used to automatically threshold the video to identify the area of larvae in each frame. Threshold images of the frames after each light activation event were overlaid to calculate a new combined threshold area. The motion index was calculated as the percentage change between the threshold area in the frame right before light activation and the new combined threshold area. This motion index correlates with the overall amount of motion in the well.

Trpa1b = experiment: Heartbeat interruption in larvae expressing Trpa1b in cardiomyocytes; type: in vivo, zebrafish; conditions: 20 μM
Experimental: Heartbeat interruption experiments were performed in vivo on 2 dpf Tg(cm/c2:Trpa1b-2A-EGFP) larvae in a Trpa1b^−/− background. Larvae were pretreated with 20 μM of TRPswitch-A or TRPswitch-B in E3 at a final concentration of 1% DMSO for 1 h in the dark at 28.5° C. before experimental manipulation. Immediately prior to the onset of experiments, E3 solution was replaced with 0.2 mg/mL tricaine (Sigma, A5040) in E3 for anesthetizing the larvae. Violet light (352-402 nm) and green light (500-600 nm) were used for E to Z and Z to E isomerization, respectively. Violet and green light excitation were achieved using a band pass filter FF01-377/50 and an et500lp long pass barrier filter, respectively, together with a t600plxxr dichroic mirror and a 300-Watt xenon bulb light source (Sutter Instrument). Experiments were performed using a NA 0.6 40× air objective at room temperature. The zebrafish heart in the whole field of view was illuminated with 1 s violet light followed by various lengths of green light as indicated. Ventricle width measurement was performed using the ImageJ ‘measure’ function on the widest outer ventricle width every 100 ms.

[2] = Photostationary state (PSS) determination; type: physicochemical; conditions: for 365 nm PSS / 420 nm PSS / 495 nm PSS: estimated, UV/Vis spectroscopy in DMSO
From the text: […] In the latter case, the pure Z isomer spectrum was estimated using methods described in previous publications.

[3] = UV-Vis absorbance, E/Z isomerization with violet and green light; type: physicochemical; conditions: UV-Vis absorbance in DMSO
Experimental: Compounds were dissolved in DMSO at 250 μM and 260 μM for TRPswitch-A and TRPswitch-B, respectively and UV-Vis absorbance was measured using a NanoDrop 1000 (Thermo Scientific).

[4] = Z→E thermal isomerisation kinetics; type: physicochemical
Experimental: In order to determine the Z→E thermal isomerisation kinetics in DMSO-d6 a ˜20 mM solution of the relevant compound was irradiated using a Luzchem LZC-4V photoreactor fitted with 12×8 W LZC-420 lamps (420 nm peak emission) until no further change was observable by ^1H NMR. For 30% water:DMSO samples, a 15 μM solution of the relevant compound was irradiated in a quartz cuvette using 365 nm LEDs (3×800 mW Nichia NCSU276A) until no further change was observed by UV-Vis spectroscopy. Compounds (˜25 μM solutions in DMSO) were treated analogously. In the case of compounds studied by NMR, the change in Z-isomer percentage was followed as a function of time through integration of the relevant peaks. […]
For data collected via ^1H NMR, the natural log of the Z isomer concentration was plotted against time to yield a straight line implying first order kinetics. The gradient of this line was used to determine the rate constant for Z→E conversion from which the thermal half-life could be calculated:
For data collected via UV-Vis Spectroscopy, absorbance data at a fixed wavelength was fitted using the following, first order equation: […]
where k represents the rate constant; A∞, A0 and At are the absorbances of the pure E-state, Z-rich state, and time t, respectively. […]

[5] = Aqueous solubility observation; type: physicochemical
[6] = UV-Vis spectroscopy in 30% water:DMSO, extrapolated pure Z spectrum, listed as TRPswitch-A

T1 sequence (O75762 whole entry): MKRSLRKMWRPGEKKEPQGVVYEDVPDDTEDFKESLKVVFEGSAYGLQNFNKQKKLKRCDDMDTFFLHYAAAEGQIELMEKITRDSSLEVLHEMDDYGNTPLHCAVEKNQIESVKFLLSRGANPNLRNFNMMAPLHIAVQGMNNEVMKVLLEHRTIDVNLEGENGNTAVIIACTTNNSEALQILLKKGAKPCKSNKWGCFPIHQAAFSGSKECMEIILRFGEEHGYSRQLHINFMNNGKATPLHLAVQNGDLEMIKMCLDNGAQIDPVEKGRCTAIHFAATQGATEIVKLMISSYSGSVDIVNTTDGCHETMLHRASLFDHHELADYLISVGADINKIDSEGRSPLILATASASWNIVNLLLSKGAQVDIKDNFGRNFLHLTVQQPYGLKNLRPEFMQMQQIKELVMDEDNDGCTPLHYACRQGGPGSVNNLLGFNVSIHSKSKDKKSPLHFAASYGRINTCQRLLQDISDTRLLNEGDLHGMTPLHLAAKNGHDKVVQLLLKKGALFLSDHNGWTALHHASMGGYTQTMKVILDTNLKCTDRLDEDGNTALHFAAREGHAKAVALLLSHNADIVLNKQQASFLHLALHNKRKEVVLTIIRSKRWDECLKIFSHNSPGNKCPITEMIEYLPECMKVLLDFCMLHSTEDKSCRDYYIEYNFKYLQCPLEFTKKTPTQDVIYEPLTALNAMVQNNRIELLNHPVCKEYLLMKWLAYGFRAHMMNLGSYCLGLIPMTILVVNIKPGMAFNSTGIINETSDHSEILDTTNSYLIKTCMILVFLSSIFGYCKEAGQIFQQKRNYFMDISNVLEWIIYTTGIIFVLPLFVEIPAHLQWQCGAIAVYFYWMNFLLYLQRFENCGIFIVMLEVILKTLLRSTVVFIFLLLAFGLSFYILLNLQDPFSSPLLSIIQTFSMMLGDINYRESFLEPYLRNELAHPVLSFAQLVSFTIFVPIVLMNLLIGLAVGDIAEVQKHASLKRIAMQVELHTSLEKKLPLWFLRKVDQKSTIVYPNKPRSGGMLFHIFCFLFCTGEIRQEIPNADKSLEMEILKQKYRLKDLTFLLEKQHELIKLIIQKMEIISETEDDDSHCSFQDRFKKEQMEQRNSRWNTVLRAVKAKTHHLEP

Row | SMILES | 365 nm PSS [2] | 420 nm PSS [2] | 495 nm PSS [2] | light-induced motion response (in vivo activity) [1] | other results
1 | C=CCN=C=S [AITC, allyl isothiocyanate, reference compound] |  |  |  |  | agonist-activated Trpa1b currents (zebrafish Trpa1b; positive control): activated currents; response of human TRPA1 current (endogenous human TRPA1): responded
2 | O=C(Nc1ccc(/N=N/c2ccccc2)c(NC(=O)c2ccco2)c1)c1ccco1 [Compound 1, (E)-N,N′-(4-(phenyldiazenyl)-1,3-phenylene)bis(furan-2-carboxamide)] |  |  |  | light-induced motion response across multiple wavelengths | bandwidth with the most activity ([1]; light-induced motion response): 415-455 nm; Trpa1b current upon violet light stimulation (zebrafish Trpa1b; 10 μM, compared to baseline): high amplitude currents; Trpa1b photocurrent upon subsequent green light stimulation (zebrafish Trpa1b; 10 μM, same cell): recovered to its baseline current magnitude; current density fold increment after subsequent pulse of green light (zebrafish Trpa1b; +100 mV): 1.15±0.17 fold; current density fold increment upon violet light illumination (zebrafish Trpa1b; +100 mV): 2.36±0.50 fold; current density fold increment after subsequent pulse of green light (zebrafish Trpa1b; −100 mV): 3.71±1.31 fold; current density fold increment upon violet light illumination (zebrafish Trpa1b; −100 mV): 4.35±1.44 fold; ventricle heartbeat after 1 s violet light (Trpa1b; 1 h pre-incubation): could be stopped; ventricular rhythm after 1 s green light (Trpa1b; after violet light): re-stored; 365 nm PSS (E-Z) ([2]; 1H NMR in DMSO-d6): 79% Z; 420 nm PSS (E-Z) ([2]; 1H NMR in DMSO-d6): 53% Z; 495 nm PSS (Z-E) ([2]; 1H NMR in DMSO-d6): 71% E; Estimated 365 nm PSS (E-Z) [2, 6]: 86% Z; Estimated 495 nm PSS (Z-E) [2, 6]: 73% E; E/Z photoswitching with violet and green light [3]: incomplete
3 | O=C(Nc1ccc(/N=N/c2ccccc2)c(NC(=O)c2cccs2)c1)c1cccs1 [Compound 3, (E)-N,N′-(4-(phenyldiazenyl)-1,3-phenylene)bis(thiophene-2-carboxamide)] | 22% E | 38% E | 76% E | slightly lower photoresponse | 
4 | N#Cc1ccc(/N=N/c2ccc(NC(=O)c3cccs3)cc2NC(=O)c2cccs2)cc1 [Compound 5, (E)-N,N′-(4-((4-cyanophenyl)diazenyl)-1,3-phenylene)bis(thiophene-2-carboxamide)] | 41% E | 30% E | 61% E | far less active | 
5 | O=C(Nc1ccc(/N=N/c2ccc([N+](=O)[O-])cc2)c(NC(=O)c2cccs2)c1)c1cccs1 [Compound 7, (E)-N,N′-(4-((4-nitrophenyl)diazenyl)-1,3-phenylene)bis(thiophene-2-carboxamide)] | 69% E | 46% E | 70% E | far less active | 
6 | Cc1nn(C)c(C)c1/N=N/c1ccc(NC(=O)c2ccco2)cc1NC(=O)c1ccco1 [Compound 8, (E)-N,N′-(4-((1,3,5-trimethyl-1H-pyrazol-4-yl)diazenyl)-1,3-phenylene)bis(furan-2-carboxamide)] |  |  |  |  | thermal half-lives [4]: long thermal half-lives; E/Z photoswitching with violet and green light [3]: quantitative photoswitching in both directions; aqueous solubility [5]: some aqueous solubility issues

Continued, in another order:

Row | 365 nm PSS [2] | 420 nm PSS [2] | 495 nm PSS [2] | SMILES | light-induced motion response (in vivo activity) [1] | other results
7 | 13% E | 56% E | 79% E | O=C(Nc1ccccc1/N=N/c1ccccc1)c1ccco1 [Compound 2, (E)-N-(2-(phenyldiazenyl)phenyl)furan-2-carboxamide] | reduced activity | 
8 | 47% E | 32% E | 61% E | N#Cc1ccc(/N=N/c2ccc(NC(=O)c3ccco3)cc2NC(=O)c2ccco2)cc1 [Compound 4, (E)-N,N′-(4-((4-cyanophenyl)diazenyl)-1,3-phenylene)bis(furan-2-carboxamide)] | far less active | 
9 | 66% E | 42% E | 64% E | O=C(Nc1ccc(/N=N/c2ccc([N+](=O)[O-])cc2)c(NC(=O)c2ccco2)c1)c1ccco1 [Compound 6, (E)-N,N′-(4-((4-nitrophenyl)diazenyl)-1,3-phenylene)bis(furan-2-carboxamide)] | far less active | 
